Measurements taken from ChEMBL document CHEMBL2010722, “Structure-activity relationship study of beta-carboline derivatives as haspin kinase inhibitors” (Bioorg Med Chem Lett, 2012).

What was measured:
[1] = target: Serine/threonine-protein kinase N1 (Homo sapiens) (UniProt Q16512); assay: Inhibition of PKN1 at 10 uM
[2] = target: Ephrin type-B receptor 2 (Homo sapiens) (UniProt P29323); assay: Inhibition of EPHB2 at 10 uM
[3] = target: Tyrosine-protein kinase TXK (Homo sapiens) (UniProt P42681); assay: Inhibition of TXK at 10 uM
[4] = target: Glycogen synthase kinase-3 beta (Homo sapiens) (UniProt P49841); assay: Inhibition of GSK3b at 10 uM
[5] = target: Serine/threonine-protein kinase NIM1 (Homo sapiens) (UniProt Q8IY84); assay: Inhibition of NIM1 at 10 uM
[6] = target: Death-associated protein kinase 1 (Homo sapiens) (UniProt P53355); assay: Inhibition of DAPK1 at 10 uM
[7] = target: Casein kinase I isoform gamma-1 (Homo sapiens) (UniProt Q9HCP0); assay: Inhibition of CK1g1 at 10 uM
[8] = target: Testis-specific serine/threonine-protein kinase 2 (Homo sapiens) (UniProt Q96PF2); assay: Inhibition of TSSK2 at 10 uM
[9] = target: Tyrosine-protein kinase receptor TYRO3 (Homo sapiens) (UniProt Q06418); assay: Inhibition of TYRO3 at 10 uM
[10] = target: Serine/threonine-protein kinase PAK 4 (Homo sapiens) (UniProt O96013); assay: Inhibition of PAK4 at 10 uM
[11] = target: Protein kinase C delta type (Homo sapiens) (UniProt Q05655); assay: Inhibition of PKCdelta at 10 uM
[12] = target: [Pyruvate dehydrogenase (acetyl-transferring)] kinase isozyme 2, mitochondrial (Homo sapiens) (UniProt Q15119); assay: Inhibition of PDHK2 at 10 uM
[13] = target: Ephrin type-A receptor 1 (Homo sapiens) (UniProt P21709); assay: Inhibition of EPHA1 at 10 uM
[14] = test system: Tyrosine-protein kinase ABL1 (Homo sapiens), P00519 [T315I]; assay: Inhibition of ABL T315I mutant at 10 uM
[15] = target: Mitogen-activated protein kinase kinase kinase 5 (Homo sapiens) (UniProt Q99683); assay: Inhibition of MAP3K5 at 10 uM
[16] = target: Interferon-induced, double-stranded RNA-activated protein kinase (Homo sapiens) (UniProt P19525); assay: Inhibition of PKR at 10 uM
[17] = target: Serine/threonine-protein kinase 3 (Homo sapiens) (UniProt Q13188); assay: Inhibition of MST2 at 10 uM
[18] = target: Tyrosine-protein kinase ABL2 (Homo sapiens) (UniProt P42684); assay: Inhibition of ARG at 10 uM
[19] = target: Insulin receptor-related protein (Homo sapiens) (UniProt P14616); assay: Inhibition of IRR at 10 uM
[20] = target: Insulin-like growth factor 1 receptor (Homo sapiens) (UniProt P08069); assay: Inhibition of IGF1R at 10 uM
[21] = target: Tyrosine-protein kinase Mer (Homo sapiens) (UniProt Q12866); assay: Inhibition of MER at 10 uM
[22] = target: Serine/threonine-protein kinase Nek9 (Homo sapiens) (UniProt Q8TD19); assay: Inhibition of NEK9 at 10 uM
[23] = test system: Hepatocyte growth factor receptor (Homo sapiens), P08581 [Y1235D]; assay: Inhibition of MET Y1235D mutant at 10 uM
[24] = target: Dual specificity mitogen-activated protein kinase kinase 1 (Homo sapiens) (UniProt Q02750); assay: Inhibition of MAP2K1 at 10 uM
[25] = target: Tyrosine-protein kinase Fyn (Homo sapiens) (UniProt P06241); assay: Inhibition of FYN at 10 uM
[26] = target: Lymphokine-activated killer T-cell-originated protein kinase (Homo sapiens) (UniProt Q96KB5); assay: Inhibition of PBK at 10 uM
[27] = target: Serine/threonine-protein kinase Nek6 (Homo sapiens) (UniProt Q9HC98); assay: Inhibition of NEK6 at 10 uM
[28] = target: NUAK family SNF1-like kinase 2 (Homo sapiens) (UniProt Q9H093); assay: Inhibition of NuaK2 at 10 uM
[29] = target: Tyrosine-protein kinase Yes (Homo sapiens) (UniProt P07947); assay: Inhibition of YES at 10 uM
[30] = target: Fibroblast growth factor receptor 2 (Homo sapiens) (UniProt P21802); assay: Inhibition of FGFR2 at 10 uM
[31] = target: Mitogen-activated protein kinase 3 (Homo sapiens) (UniProt P27361); assay: Inhibition of Erk1 at 10 uM
[32] = target: Protein kinase C eta type (Homo sapiens) (UniProt P24723); assay: Inhibition of PKCh at 10 uM
[33] = target: cAMP-dependent protein kinase catalytic subunit beta (Homo sapiens) (UniProt P22694); assay: Inhibition of PKACb (PRKACB) at 10 uM
[34] = target: Serine/threonine-protein kinase PLK3 (Homo sapiens) (UniProt Q9H4B4); assay: Inhibition of PLK3 at 10 uM
[35] = target: cGMP-dependent protein kinase 2 (Homo sapiens) (UniProt Q13237); assay: Inhibition of CGK2 at 10 uM
[36] = target: Fibroblast growth factor receptor 3 (Homo sapiens) (UniProt P22607); assay: Inhibition of FGFR3 at 10 uM
[37] = target: Serine/threonine-protein kinase B-raf (Homo sapiens) (UniProt P15056); assay: Inhibition of BRAF at 10 uM
[38] = target: Protein-tyrosine kinase 2-beta (Homo sapiens) (UniProt Q14289); assay: Inhibition of PYK2 at 10 uM
[39] = target: Serine/threonine-protein kinase PAK 3 (Homo sapiens) (UniProt O75914); assay: Inhibition of PAK3 at 10 uM
[40] = target: Aurora kinase B/Inner centromere protein (Homo sapiens) (UniProt Q96GD4+Q9NQS7); assay: Inhibition of AurB-INCENP at 10 uM; assay type: protein-complex assay
[41] = target: Serine/threonine-protein kinase D2 (Homo sapiens) (UniProt Q9BZL6); assay: Inhibition of PKD2 at 10 uM
[42] = target: Non-receptor tyrosine-protein kinase TNK1 (Homo sapiens) (UniProt Q13470); assay: Inhibition of TNK1 at 10 uM
[43] = target: Calcium/calmodulin-dependent protein kinase type IV (Homo sapiens) (UniProt Q16566); assay: Inhibition of CaMK4 at 10 uM
[44] = target: Vascular endothelial growth factor receptor 1 (Homo sapiens) (UniProt P17948); assay: Inhibition of FLT1 at 10 uM
[45] = test system: Fibroblast growth factor receptor 3 (Homo sapiens), P22607 [K650M]; assay: Inhibition of FGFR3 K650M mutant at 10 uM
[46] = target: Mitogen-activated protein kinase kinase kinase 4 (Homo sapiens) (UniProt Q9Y6R4); assay: Inhibition of MAP3K4 at 10 uM
[47] = test system: Serine/threonine-protein kinase B-raf (Homo sapiens), P15056 [V600E]; assay: Inhibition of BRAF V600E mutant at 10 uM

Sequence of Glycogen synthase kinase-3 beta (Homo sapiens) (P49841 whole entry, looked up): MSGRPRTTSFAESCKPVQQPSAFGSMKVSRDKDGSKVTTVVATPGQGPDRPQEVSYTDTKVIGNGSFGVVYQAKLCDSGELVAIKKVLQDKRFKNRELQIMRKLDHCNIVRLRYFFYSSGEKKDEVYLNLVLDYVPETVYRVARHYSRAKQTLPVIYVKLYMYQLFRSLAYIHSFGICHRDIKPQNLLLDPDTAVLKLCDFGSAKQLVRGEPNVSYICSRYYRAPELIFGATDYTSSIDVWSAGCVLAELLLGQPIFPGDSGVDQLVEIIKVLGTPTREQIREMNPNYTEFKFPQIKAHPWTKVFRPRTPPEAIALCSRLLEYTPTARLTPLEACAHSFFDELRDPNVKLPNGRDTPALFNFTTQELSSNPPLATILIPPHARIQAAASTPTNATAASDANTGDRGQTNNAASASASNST
Sequence of Death-associated protein kinase 1 (Homo sapiens) (P53355 whole entry, looked up, canonical isoform): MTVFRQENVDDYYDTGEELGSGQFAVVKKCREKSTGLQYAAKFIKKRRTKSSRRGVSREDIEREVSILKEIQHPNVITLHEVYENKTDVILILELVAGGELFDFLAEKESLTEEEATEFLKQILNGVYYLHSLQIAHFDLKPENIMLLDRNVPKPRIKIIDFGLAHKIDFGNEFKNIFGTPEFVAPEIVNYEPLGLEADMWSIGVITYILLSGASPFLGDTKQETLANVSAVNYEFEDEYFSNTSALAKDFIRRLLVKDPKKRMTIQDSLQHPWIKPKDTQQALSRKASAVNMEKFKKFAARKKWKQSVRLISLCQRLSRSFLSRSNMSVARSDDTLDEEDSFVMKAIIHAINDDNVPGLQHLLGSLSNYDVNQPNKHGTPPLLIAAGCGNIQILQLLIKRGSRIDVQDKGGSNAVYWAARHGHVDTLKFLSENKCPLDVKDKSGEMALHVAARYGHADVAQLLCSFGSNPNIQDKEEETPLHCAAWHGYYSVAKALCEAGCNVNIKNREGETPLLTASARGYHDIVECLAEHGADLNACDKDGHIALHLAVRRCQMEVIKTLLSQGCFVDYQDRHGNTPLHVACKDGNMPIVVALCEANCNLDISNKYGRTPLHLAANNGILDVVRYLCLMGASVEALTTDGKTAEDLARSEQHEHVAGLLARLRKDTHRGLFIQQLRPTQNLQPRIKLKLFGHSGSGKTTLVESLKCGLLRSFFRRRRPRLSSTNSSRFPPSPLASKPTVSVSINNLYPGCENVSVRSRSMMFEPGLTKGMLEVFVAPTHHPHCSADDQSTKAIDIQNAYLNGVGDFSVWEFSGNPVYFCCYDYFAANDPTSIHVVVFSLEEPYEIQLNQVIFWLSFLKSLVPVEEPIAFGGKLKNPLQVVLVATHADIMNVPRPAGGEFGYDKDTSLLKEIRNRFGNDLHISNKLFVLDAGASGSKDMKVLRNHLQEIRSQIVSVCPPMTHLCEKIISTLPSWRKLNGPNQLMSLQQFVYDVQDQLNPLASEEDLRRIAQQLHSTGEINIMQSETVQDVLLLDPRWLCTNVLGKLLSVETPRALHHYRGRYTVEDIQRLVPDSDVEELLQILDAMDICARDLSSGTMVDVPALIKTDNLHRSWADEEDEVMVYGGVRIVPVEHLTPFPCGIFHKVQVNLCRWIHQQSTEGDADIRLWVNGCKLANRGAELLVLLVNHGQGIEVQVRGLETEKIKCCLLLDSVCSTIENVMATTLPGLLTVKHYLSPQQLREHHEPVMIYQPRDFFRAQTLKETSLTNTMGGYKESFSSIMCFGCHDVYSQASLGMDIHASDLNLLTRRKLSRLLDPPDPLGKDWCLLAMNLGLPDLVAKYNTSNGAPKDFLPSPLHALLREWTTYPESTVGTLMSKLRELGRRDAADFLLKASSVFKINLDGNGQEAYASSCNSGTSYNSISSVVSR
Sequence of Lymphokine-activated killer T-cell-originated protein kinase (Homo sapiens) (Q96KB5 whole entry): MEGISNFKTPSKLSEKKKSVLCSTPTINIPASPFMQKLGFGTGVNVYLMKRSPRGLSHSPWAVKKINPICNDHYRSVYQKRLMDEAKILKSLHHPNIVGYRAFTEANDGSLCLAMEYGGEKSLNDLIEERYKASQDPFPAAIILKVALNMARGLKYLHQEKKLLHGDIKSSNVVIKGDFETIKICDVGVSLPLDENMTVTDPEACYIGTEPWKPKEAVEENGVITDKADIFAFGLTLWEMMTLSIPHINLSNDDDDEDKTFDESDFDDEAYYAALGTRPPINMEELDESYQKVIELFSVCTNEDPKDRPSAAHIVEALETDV
Sequence of Interferon-induced, double-stranded RNA-activated protein kinase (Homo sapiens) (P19525 whole entry): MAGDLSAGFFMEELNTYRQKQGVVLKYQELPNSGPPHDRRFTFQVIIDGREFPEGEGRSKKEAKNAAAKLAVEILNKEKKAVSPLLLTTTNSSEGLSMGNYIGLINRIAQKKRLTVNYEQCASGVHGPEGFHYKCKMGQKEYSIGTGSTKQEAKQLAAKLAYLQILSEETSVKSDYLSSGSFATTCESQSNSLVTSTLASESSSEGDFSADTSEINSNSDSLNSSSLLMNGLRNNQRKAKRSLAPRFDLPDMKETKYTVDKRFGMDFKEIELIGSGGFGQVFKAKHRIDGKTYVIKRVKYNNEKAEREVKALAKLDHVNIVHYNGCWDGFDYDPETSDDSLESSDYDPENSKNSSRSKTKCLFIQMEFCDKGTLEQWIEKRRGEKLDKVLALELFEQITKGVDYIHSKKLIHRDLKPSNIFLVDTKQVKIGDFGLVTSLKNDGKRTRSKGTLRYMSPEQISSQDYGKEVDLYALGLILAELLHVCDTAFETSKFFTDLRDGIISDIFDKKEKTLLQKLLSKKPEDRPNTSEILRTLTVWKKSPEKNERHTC
Sequence of Insulin-like growth factor 1 receptor (Homo sapiens) (P08069 31-736 limits assumed): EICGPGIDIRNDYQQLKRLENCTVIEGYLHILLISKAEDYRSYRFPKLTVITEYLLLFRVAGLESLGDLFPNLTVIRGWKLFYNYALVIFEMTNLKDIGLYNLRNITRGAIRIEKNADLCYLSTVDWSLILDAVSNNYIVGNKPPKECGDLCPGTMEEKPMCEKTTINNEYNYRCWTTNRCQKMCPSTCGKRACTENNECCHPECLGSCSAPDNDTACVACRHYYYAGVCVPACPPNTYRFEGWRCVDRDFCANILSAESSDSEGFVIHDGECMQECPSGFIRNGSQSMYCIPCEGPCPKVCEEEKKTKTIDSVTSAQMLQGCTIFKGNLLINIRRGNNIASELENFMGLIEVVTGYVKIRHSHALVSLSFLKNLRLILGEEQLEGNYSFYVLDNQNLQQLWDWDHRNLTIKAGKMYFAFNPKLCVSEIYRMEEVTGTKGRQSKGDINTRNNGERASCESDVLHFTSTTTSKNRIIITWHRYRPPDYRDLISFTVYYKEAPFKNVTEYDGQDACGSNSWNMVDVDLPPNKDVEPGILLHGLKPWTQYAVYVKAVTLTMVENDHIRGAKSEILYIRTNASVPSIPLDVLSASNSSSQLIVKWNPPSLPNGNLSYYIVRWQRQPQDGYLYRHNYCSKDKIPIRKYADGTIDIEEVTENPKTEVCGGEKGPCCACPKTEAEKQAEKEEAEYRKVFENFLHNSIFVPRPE
Sequence of Insulin-like growth factor 1 receptor (Homo sapiens) (P08069 741-1367 limits assumed): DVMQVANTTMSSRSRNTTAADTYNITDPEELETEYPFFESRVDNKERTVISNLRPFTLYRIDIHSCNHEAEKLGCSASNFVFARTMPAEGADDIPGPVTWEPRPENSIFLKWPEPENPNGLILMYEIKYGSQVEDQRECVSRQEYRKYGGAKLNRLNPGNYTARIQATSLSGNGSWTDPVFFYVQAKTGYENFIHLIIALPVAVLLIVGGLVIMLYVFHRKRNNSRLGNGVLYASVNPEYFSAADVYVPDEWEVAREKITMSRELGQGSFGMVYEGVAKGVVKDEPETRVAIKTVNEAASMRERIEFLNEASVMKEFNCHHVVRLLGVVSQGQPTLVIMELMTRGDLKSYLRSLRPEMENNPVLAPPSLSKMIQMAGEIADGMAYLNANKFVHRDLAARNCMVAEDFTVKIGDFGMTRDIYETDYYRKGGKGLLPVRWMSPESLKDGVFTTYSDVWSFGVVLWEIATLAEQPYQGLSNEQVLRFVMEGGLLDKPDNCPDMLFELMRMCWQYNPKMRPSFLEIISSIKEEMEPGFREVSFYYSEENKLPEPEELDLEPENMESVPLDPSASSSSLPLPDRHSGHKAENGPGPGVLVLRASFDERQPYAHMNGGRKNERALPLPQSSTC
Sequence of Tyrosine-protein kinase Yes (Homo sapiens) (P07947 2-543 limits assumed): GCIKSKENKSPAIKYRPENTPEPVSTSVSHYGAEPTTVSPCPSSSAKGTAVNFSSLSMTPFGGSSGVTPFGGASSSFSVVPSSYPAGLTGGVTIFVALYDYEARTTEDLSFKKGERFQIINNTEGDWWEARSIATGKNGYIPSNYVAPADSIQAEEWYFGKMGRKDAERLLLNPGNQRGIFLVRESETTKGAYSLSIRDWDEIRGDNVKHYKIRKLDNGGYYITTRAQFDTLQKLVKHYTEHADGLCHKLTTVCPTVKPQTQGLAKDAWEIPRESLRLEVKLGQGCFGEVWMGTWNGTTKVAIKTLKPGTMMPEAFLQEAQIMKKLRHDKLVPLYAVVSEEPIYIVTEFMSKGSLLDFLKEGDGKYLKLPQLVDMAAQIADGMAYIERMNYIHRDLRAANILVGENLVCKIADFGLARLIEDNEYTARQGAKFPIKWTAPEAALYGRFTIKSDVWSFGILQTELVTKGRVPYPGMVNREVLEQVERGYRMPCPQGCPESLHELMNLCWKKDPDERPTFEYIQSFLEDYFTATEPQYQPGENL
Sequence of Mitogen-activated protein kinase 3 (Homo sapiens) (P27361 whole entry): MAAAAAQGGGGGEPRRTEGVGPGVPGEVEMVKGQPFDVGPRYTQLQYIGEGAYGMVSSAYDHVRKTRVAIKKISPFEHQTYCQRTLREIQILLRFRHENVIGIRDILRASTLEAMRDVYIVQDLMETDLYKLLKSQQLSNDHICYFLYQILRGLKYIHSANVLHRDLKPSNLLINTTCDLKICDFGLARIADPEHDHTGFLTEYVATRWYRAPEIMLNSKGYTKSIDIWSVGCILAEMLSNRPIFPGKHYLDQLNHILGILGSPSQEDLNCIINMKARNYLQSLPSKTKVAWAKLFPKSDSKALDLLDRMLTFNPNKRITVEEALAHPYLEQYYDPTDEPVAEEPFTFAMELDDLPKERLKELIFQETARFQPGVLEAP

With COc1ccc2c3ccnc(C(F)(F)F)c3n(CCCCN)c2c1 as the compound, how does the inhibition [1] read?
The inhibition was 52%.

And the inhibition [2]?
The inhibition was 0%.

What about the inhibition [3] of the same compound?
Its inhibition is 8%.

What about the inhibition [4] of the same compound?
Its inhibition is 27%.

What about the inhibition [5] of the same compound?
The inhibition was 1%.

What about the inhibition [6] of the same compound?
The inhibition was 41%.

What about the inhibition [7] of the same compound?
Its inhibition is 66%.

What about the inhibition [8] of the same compound?
The inhibition was 5%.

What about the inhibition [9] of the same compound?
Its inhibition is 16%.

And the inhibition [10]?
The inhibition was 13%.

And the inhibition [11]?
The inhibition was 68%.

And the inhibition [12]?
The inhibition was 0%.

And the inhibition [13]?
The inhibition was 4%.

What about the inhibition [14] of the same compound?
Its inhibition is 0%.

What about the inhibition [15] of the same compound?
Its inhibition is 17%.

What about the inhibition [16] of the same compound?
Its inhibition is 6%.

And the inhibition [17]?
Its inhibition is 3%.

And the inhibition [18]?
Its inhibition is 0%.

And the inhibition [19]?
Its inhibition is 0%.

What about the inhibition [20] of the same compound?
The inhibition was 0%.

What about the inhibition [21] of the same compound?
The inhibition was 35%.

What about the inhibition [22] of the same compound?
Its inhibition is 0%.

What about the inhibition [23] of the same compound?
The inhibition was 2%.

What about the inhibition [24] of the same compound?
The inhibition was 16%.

What about the inhibition [25] of the same compound?
Its inhibition is 8%.

And the inhibition [26]?
Its inhibition is 12%.

And the inhibition [27]?
The inhibition was 5%.

What about the inhibition [28] of the same compound?
Its inhibition is 27%.

What about the inhibition [29] of the same compound?
Its inhibition is 6%.

And the inhibition [30]?
The inhibition was 0%.

And the inhibition [31]?
The inhibition was 2%.

What about the inhibition [32] of the same compound?
Its inhibition is 77%.

And the inhibition [33]?
The inhibition was 41%.

What about the inhibition [34] of the same compound?
Its inhibition is 10%.

What about the inhibition [35] of the same compound?
The inhibition was 91%.

And the inhibition [36]?
Its inhibition is 1%.

And the inhibition [37]?
The inhibition was 0%.

And the inhibition [38]?
Its inhibition is 0%.

And the inhibition [39]?
Its inhibition is 27%.

And the inhibition [40]?
Its inhibition is 5%.

And the inhibition [41]?
Its inhibition is 84%.

What about the inhibition [42] of the same compound?
Its inhibition is 10%.

And the inhibition [43]?
The inhibition was 13%.

What about the inhibition [44] of the same compound?
Its inhibition is 8%.

And the inhibition [45]?
The inhibition was 0%.

And the inhibition [46]?
The inhibition was 8%.

What about the inhibition [47] of the same compound?
The inhibition was 8%.
